Assay results from patent US20250099553A1, “COMPOSITION AND METHODS FOR MODULATION OF ELOVL2” (YOUHEALTH BIOTECH, LIMITED, priority 2018, published 2025).

What was measured:
human fibroblast cells = test system: human fibroblast cells
Procedure: The human RPE cells were primarily derived from healthy donors. The human fibroblast cells are purchased from ATCC (WI-38, ATCC® CCL-75) human fibroblasts were maintained in Dulbecco's Modified Eagle Medium (DMEM) supplemented with 10% fetal bovine serum and 50 U/ml penicillin-streptomycin. Human RPE cells were cultured with DMEM/F-12 (1:1) supplemented with 10% fetal bovine serum and 50 U/ml penicillin-streptomycin.
RNA was extracted by RNeasy Mini Kit (QIAGEN, 74104) and the RNase-Free DNase Set (QIAGEN, 79254) was used to ensure no DNA contamination. Reverse transcription was performed by High Capacity cDNA Reverse Transcription Kit (ABI, 4368814). SYBR-qPCR was performed by Power SYBR® Green PCR Master Mix (ABI, 4367659). All primers were designed using PrimerPremier5 and synthesized from Integrated DNA Technologies.

[1] = test system: Elovl2 knock-down human RPE cells (KE); test: Drug rescue of Elovl2 knockdown (KE) human RPE cells, AMD phenotype (immunofluorescence, qPCR); format: cell-based; details: 5 mM nicotinamide, 48 h, FIGS. 5I-5J
Procedure: For Elovl2 knockdown, lentivector (pLL3.7-shElovl2) exogenously expressing shRNA (5′-[…]-3′) was made and transfected into 293T cells (ATCC) using Lipofectamin 3000 reagent (Thermo Fisher) to obtain lentivirus. To build the Elovl2-knockdown cell line, human RPE cells (seeded a night ahead in a concentration of 5*10^5 cells/well) in a 6-well plate were infected with the lentivirus containing Elovl2-shRNA for 24h, followed by 24 h of equilibration. Drug treatments were performed at the time of 48 h post-infection. To rescue the Elovl2 knockdown cells, 10 μg/ml curcumin (Sigma, C7727) or 5 mM nicotinamide (Sigma, N0636) or DMSO were added in the cell culture medium and the cells were treated for 48 h.
Murine tissue sample were freshly collected upon perfusion, followed by overnight PFA fixation and sucrose dehydration. Human fibroblast cells, human RPE cells and murine primary cells were fixed with 4% PFA for 1 h. To perform immunofluorescence, the slide was rinsed in PBS for 5 minutes, blocked in blocking buffer (PBS with 1% BSA, 0.1% Tween-20) for 20 minutes at room temperature (RT), and incubated with primary antibody in blocking buffer for 1 hour at RT. After 3 washes with 0.1% Tween-20 in PBS, the slide was incubated with secondary antibody in blocking buffer for 1 hour at RT. The slides were mounted with DAPI-Vectashield solution (Vector laboratories). Images were taken with a confocal microscope (LSM 780). To estimate the mitochondrial conditions, human RPE cells and murine primary cells were incubated with either MitoSOX (5 uM) according to manufacturer's instructions.

Compound	methylation on biological aging marker Elovl2 (human fibroblast cells; H2O2 treated human fibroblast cells, MeDip-qPCR)	senescent markers (human fibroblast cells; H2O2 treated human fibroblast cells, FIGS. 1D-1E, 6E-6F)	expression of Elovl2 (human fibroblast cells; after H2O2 treatment, groups with DNMT1, DNMT3A and DNMT3B knockdown but not CHD4 knockdown, FIG. 6H)	AMD markers [1]	expression of cellular senescence genes [1]	mitochondrial dysfunction [1]
OO [H2O2, hydrogen peroxide]	Increased methylation	increase of senescent markers	decreased			
NC(=O)c1cccnc1 [nicotinamide]				reduction of AMD markers	reversed the abnormal expression of cellular senescence genes	reduced mitochondrial dysfunction
